Experimental data reported in patent US20120046331A1, “Antifungal Agents and Uses Thereof” (priority 2010, published 2012).
Values after ≈ are worked out from the molar mass of the structure shown. Values joined by “and” are separate entries in the source; they are usually repeats but may differ in a detail not shown here. Equal entries are not always repeated. Where two headings read alike, the source gives them in different places. Marks after values point to notes of the source that are not given here.

Legend:
T. tonsurans [1] = experiment: Checkerboard combination testing of compound 8 with antifungals, FIC (Example 1); type: cell-based, Trichophyton tonsurans; conditions: for Additivity # isolates / Additivity isolates (%): 0.5≦FIC≦1.0; for No Interaction # isolates: 1.0<FIC≦4.0; for Synergy # isolates / Synergy isolates (%): FIC<0.5
Experimental: (§1) This example describes the in vitro activity of combinations of compounds according to the present invention and antifungal agents against a collection of dermatophytic fungal pathogens. Antifungal susceptibility testing was adapted from the CLSI M38-A broth microdilution method for dermatophytes (NCCLS-M38-A2 2008). Combination testing was performed by checkerboard method (with compound 8 in combination with fluconazole, itraconazole or terbinafine). A total of 30 isolates of 5 different fungal species were tested in the combination test: 6 isolates each of Trichophyton tonsurans, Trichophyton rubrum, Epidermophyton floccosum, Trichophyton mentagrophytes and Microsporum canis. Clinical isolates were obtained by the Laboratory of Dr. M. Ghannoum at Case Western University.
(§2) Synergy was assessed using the fractional inhibitory concentration (FIC), an interaction coefficient, with the following definitions:
(§3) The fold reduction of the itraconazole minimum inhibitory concentration (MIC) was also evaluated.

[2] = tested on: broad panel of dermatophytic clinical isolates; experiment: Single agent MIC, whole panel (Example 1); type: cell-based; conditions: range over all species and clinical isolates tested
Text: (§4) A minimum inhibitory concentration (MICx) of a compound such as a HDAC inhibitor or an antifungal agent (or both) is the concentration that reduces growth of a fungus by X %, compared to the growth of the fungus in the absence of the compound.
as §1

E. floccosum [3] = experiment: Checkerboard combination testing of compound 8 with antifungals, FIC (Example 1); type: cell-based, Epidermophyton floccosum; conditions: for Additivity # isolates / Additivity isolates (%): 0.5≦FIC≦1.0
Experimental: as §1, §2, §3

M. canis [4] = experiment: as above; type: cell-based, Microsporum canis; conditions: Compound 8 in combination with itraconazole, N=5 isolates
[5] = tested on: T. rubrum, T. mentagrophytes and T. tonsurans strains; experiment: Checkerboard microdilution Compound 8 + fluconazole, all strains (Example 2); type: cell-based; conditions: Compound 8 in combination with fluconazole
Experimental: (§5) MIC testing was performed according to the modification of the CLSI M38-A2 standard for dermatophytes developed at the Center (CLSI. Reference Method for Broth Dilution Antifungal Susceptibility Testing of Filamentous Fungi; Approved Standard-Second Edition. CLSI document M38-A2 [ISBN 1-56238-668-9]. CLSI, 940 West Valley Road, Suite 1400, Wayne, Pa. 19087-1898 USA, 2008; Ghannoum M A, et al. Intra- and Interlaboratory Study of a Method for Testing the Antifungal Susceptibilities of Dermatophytes. 2004 J Clin Microbiol 42:(7): 2977-2979). Compound 8 and fluconazole were tested in combination using a checkerboard microdilution method. The interaction between Compound 8 and fluconazole was determined by FIC Index, or Fractional Inhibitory Concentration Index, which assigns a numerical value to the interaction of the two antifungals.

T. mentagrophytes [6] = experiment: Checkerboard combination testing of compound 8 with antifungals, FIC (Example 1); type: cell-based, Trichophyton mentagrophytes; conditions: n=6 isolates; for Additivity # isolates / Additivity isolates (%): 0.5≦FIC≦1.0; for No Interaction # isolates: 1.0<FIC≦4.0; for Synergy # isolates / Synergy isolates (%): FIC<0.5
Experimental: as §1
(§6) Synergy was assessed using the fractional inhibitory concentration (FIC), an interaction coefficient, with the following definitions: […]

T. rubrum [7] = experiment: Single agent MIC, broth microdilution adapted from CLSI M38-A (Example 1); type: cell-based; conditions: Trichophyton rubrum, range over clinical isolates, N=10, read-out: Cpd 8 MIC
Text: as §4, §1

M. canis [8] = experiment: as above; type: cell-based; conditions: Microsporum canis, range over clinical isolates, N=7, read-out: Cpd 8 MIC
Text: as §4, §1

E. floccosum [9] = experiment: as above; type: cell-based; conditions: Epidermophyton floccosum, range over clinical isolates, N=9, read-out: Cpd 8 MIC
Text: as §4, §1

T. tonsurans [10] = experiment: as above; type: cell-based; conditions: Trichophyton tonsurans, range over clinical isolates, N=8, read-out: Cpd 8 MIC
Text: as §4, §1

T. mentagrophytes [11] = experiment: as above; type: cell-based; conditions: Trichophyton mentagrophytes, range over clinical isolates, N=10, read-out: Cpd 8 MIC
Text: as §4, §1

M. canis [12] = experiment: Checkerboard combination testing of compound 8 with antifungals, FIC (Example 1); type: cell-based, Microsporum canis
Experimental: as §1, §6

[13] = tested on: clinical isolates of Zygomycetes and molds; experiment: In vitro synergy with azoles; type: cell-based; conditions: majority of clinical isolates
T. rubrum [14] = experiment: Checkerboard combination testing of compound 8 with antifungals, FIC (Example 1); type: cell-based, Trichophyton rubrum; conditions: n=6 isolates; for Additivity # isolates / Additivity isolates (%): 0.5≦FIC≦1.0; for No Interaction # isolates: 1.0<FIC≦4.0; for Synergy # isolates / Synergy isolates (%): FIC<0.5
Experimental: as §1, §6

T. tonsurans [15] = experiment: Checkerboard microdilution Compound 8 + fluconazole, FIC Index (Example 2); type: cell-based; conditions: Compound 8 in combination with fluconazole, one value per strain (MRL #)
Experimental: as §5

T. mentagrophytes [16] = experiment: as above; type: cell-based; conditions: Compound 8 in combination with fluconazole, one value per strain (MRL #)
Experimental: as §5

[17] = tested on: panel of clinical isolates of 5 common dermatophytic fungi; experiment: Checkerboard combination testing, whole panel (Example 1); type: cell-based
Experimental: as §1, §6

T. rubrum [18] = experiment: MIC testing, modified CLSI M38-A2 for dermatophytes (Example 2); type: cell-based, Trichophyton rubrum; conditions: for MIC50: lowest concentration to inhibit 50% of the strains tested, n = 20
T. rubrum [19] = experiment: Checkerboard microdilution Compound 8 + fluconazole, FIC Index (Example 2); type: cell-based, Trichophyton rubrum; conditions: Compound 8 in combination with fluconazole, one value per strain (MRL #)
Experimental: This example describes the in vitro activity of combinations of compounds according to the present invention and antifungal agents against clinical isolates of Trichophyton rubrum. Twenty clinical isolates Trichophyton rubrum, including 9 strains with elevated terbinafine MICs, taken from the culture collection of the Center for Medical Mycology, were tested.
as §5

T. tonsurans [20] = experiment: MIC testing, modified CLSI M38-A2 for dermatophytes (Example 2); type: cell-based
Experimental: as §5

T. mentagrophytes [21] = experiment: as above; type: cell-based
Experimental: as §5

[22] = Compound 8 in combination with fluconazole, n=6 isolates
[23] = Compound 8 in combination with itraconazole, N=5 isolates
[24] = one value per clinical isolate (Strain # 1-6)
[25] = Compound 8 in combination with fluconazole, 1.0<FIC≦4.0, n=6 isolates
[26] = Compound 8 in combination with fluconazole, FIC<0.5, n=6 isolates
[27] = Compound 8 in combination with itraconazole, n=6 isolates
[28] = Compound 8 in combination with itraconazole, FIC<0.5, n=6 isolates
[29] = Compound 8 in combination with fluconazole
[30] = Compound 8 in combination with itraconazole
[31] = Compound 8 in combination with fluconazole, 0.5≦FIC≦1.0, n=6 isolates
[32] = Trichophyton tonsurans, n = 5 strains
[33] = Trichophyton mentagrophytes, n = 5 strains

Fold Reduction of Itraconazole MIC by Cpd 8 (T. tonsurans [1]; [24]): 2x and 4x
MIC [2]: 0.02 to 2 µg/mL
Fold Reduction of Itraconazole MIC by Cpd 8 (E. floccosum [3]; [24]): 8x and 4x and 7.5x
MIC (T. rubrum [7]): 0.06 to 0.25 µg/mL
MIC (M. canis [8]): 0.12 to 2 µg/mL
MIC (E. floccosum [9]): 0.5 to 1 µg/mL
MIC (T. tonsurans [10]): 0.02 to 0.25 µg/mL
MIC (T. mentagrophytes [11]): 0.12 to 2 µg/mL
MIC50 (T. rubrum [18]; Trichophyton rubrum, read-out: MIC50): 1 µg/mL (≈ 3.53 µM)
MIC90 (T. rubrum [18]; Trichophyton rubrum, n = 20 strains): 4 µg/mL (≈ 14.1 µM)
MIC50 (T. rubrum [18]): 1 µg/mL (≈ 3.53 µM)
MIC Range (T. rubrum [18]; n = 20 strains): 0.5 to 4.0 µg/mL
MIC (T. tonsurans [20]; Trichophyton tonsurans, drug alone, one value per strain (MRL # in c0), read-out: Individual MIC): 0.12 µg/mL
MIC50 (T. tonsurans [20]; [32]): 0.06 µg/mL
MIC90 (T. tonsurans [20]; [32]): 0.06 µg/mL
MIC Range (T. tonsurans [20]; n = 5 strains): 0.06 to 0.12 µg/mL
MIC (T. mentagrophytes [21]; Trichophyton mentagrophytes, drug alone, one value per strain (MRL # in c0), read-out: Individual MIC): 1 µg/mL
MIC50 (T. mentagrophytes [21]; [33]): 1 µg/mL
MIC90 (T. mentagrophytes [21]; [33]): 1 µg/mL
MIC Range (T. mentagrophytes [21]; n = 5 strains): 1.0 µg/mL
SMILES: O=C(Cc1ccc(CCCCc2ccccc2)cc1)NO [Compound 8]
Additivity # isolates (T. tonsurans [1]; [22]): 1
Additivity isolates (%) (T. tonsurans [1]; [22]): (17%)
No Interaction # isolates (T. tonsurans [1]; [22]): 0
Synergy # isolates (T. tonsurans [1]; [22]): 5
Synergy isolates (%) (T. tonsurans [1]; [22]): (83%)
Additivity # isolates (T. tonsurans [1]; [23]): 4
Additivity isolates (%) (T. tonsurans [1]; [23]): (80%)*
No Interaction # isolates (T. tonsurans [1]; [23]): 0
Synergy # isolates (T. tonsurans [1]; [23]): 1
Synergy isolates (%) (T. tonsurans [1]; [23]): (20%)*
Additivity # isolates (E. floccosum [3]; [22]): 4
Additivity isolates (%) (E. floccosum [3]; [22]): (67%)
No Interaction # isolates (E. floccosum [3]; [25]): 2
No Interaction isolates (%) (E. floccosum [3]; [25]): (33%)
Synergy # isolates (E. floccosum [3]; [26]): 0
Additivity # isolates (E. floccosum [3]; [27]): 2
Additivity isolates (%) (E. floccosum [3]; [27]): (33%)
No Interaction # isolates (E. floccosum [3]; Compound 8 in combination with itraconazole, 1.0<FIC≦4.0, n=6 isolates): 0
Synergy # isolates (E. floccosum [3]; [28]): 4
Synergy isolates (%) (E. floccosum [3]; [28]): (67%)
Additivity # isolates (M. canis [4]; 0.5≦FIC≦1.0): 0*
No Interaction isolates (%) (M. canis [4]; 1.0<FIC≦4.0): (80%)*
Synergy # isolates (M. canis [4]; FIC<0.5): 1
Synergy isolates (%) (M. canis [4]; FIC<0.5): (20%)*
Antagonism [5]: No antagonism was demonstrated
Synergism, % of the strains [5]: 23%
Additivity # isolates (T. mentagrophytes [6]; [29]): 4
Additivity isolates (%) (T. mentagrophytes [6]; [29]): (67%)
No Interaction # isolates (T. mentagrophytes [6]; [29]): 0
Synergy # isolates (T. mentagrophytes [6]; [29]): 2
Synergy isolates (%) (T. mentagrophytes [6]; [29]): (33%)
Additivity # isolates (T. mentagrophytes [6]; [30]): 1
Additivity isolates (%) (T. mentagrophytes [6]; [30]): (17%)
No Interaction # isolates (T. mentagrophytes [6]; [30]): 0
Synergy # isolates (T. mentagrophytes [6]; [30]): 5
Synergy isolates (%) (T. mentagrophytes [6]; [30]): (83%)
Additivity # isolates (M. canis [12]; [31]): 4
Additivity isolates (%) (M. canis [12]; [31]): (67%)
No Interaction # isolates (M. canis [12]; [25]): 1
No Interaction isolates (%) (M. canis [12]; [25]): (17%)
Synergy # isolates (M. canis [12]; [26]): 1
Synergy isolates (%) (M. canis [12]; [26]): (17%)
No Interaction # isolates (M. canis [12]; Compound 8 in combination with itraconazole, 1.0<FIC≦4.0, N=5 isolates): 4
In vitro interaction with azoles [13]: synergy
Additivity # isolates (T. rubrum [14]; [29]): 4
Additivity isolates (%) (T. rubrum [14]; [29]): (67%)
No Interaction # isolates (T. rubrum [14]; [29]): 0
Synergy # isolates (T. rubrum [14]; [29]): 2
Synergy isolates (%) (T. rubrum [14]; [29]): (33%)
Additivity # isolates (T. rubrum [14]; [30]): 2
Additivity isolates (%) (T. rubrum [14]; [30]): (33%)
No Interaction # isolates (T. rubrum [14]; [30]): 0
Synergy # isolates (T. rubrum [14]; [30]): 4
Synergy isolates (%) (T. rubrum [14]; [30]): (67%)
Interpretation from ODDS (T. tonsurans [15]; strain MRL 10152): Additive
Interpretation from ODDS (T. tonsurans [15]; strain MRL 10327): No interaction
Interpretation from ODDS (T. tonsurans [15]; strain MRL 10328): Synergistic
Interpretation from ODDS (T. mentagrophytes [16]; strain MRL 11256): Synergistic
Interpretation from ODDS (T. mentagrophytes [16]; strain MRL 12511): Additive
Interpretation from ODDS (T. mentagrophytes [16]; strain MRL 12680): No interaction
Synergy, % of the isolate combinations tested ([17]; Compound 8 with fluconazole, 30 isolate combinations): 33%
Synergy, number of isolates ([17]; Compound 8 with fluconazole, of 30 isolate combinations tested): 10
Synergy, % of the isolate combinations tested ([17]; Compound 8 with itraconazole, 28 isolate combinations): 54%
Synergy, number of isolates ([17]; Compound 8 with itraconazole, of 28 isolate combinations tested): 15
Antagonism ([17]; any of the Compound 8-azole combinations or clinical isolates): Antagonism was not observed
Compound 8 MIC compared with the corresponding terbinafine MIC (T. rubrum [18]; nine strains with a terbinafine MIC≧4.0 μg/ml): lower than the corresponding terbinafine MIC for eight of nine strains
Interpretation from ODDS (T. rubrum [19]; strain MRL 476): No interaction
Interpretation from ODDS (T. rubrum [19]; strain MRL 477): Additive
Interpretation from ODDS (T. rubrum [19]; strain MRL 670): Synergistic
Interpretation from ODDS (T. rubrum [19]; strain MRL 9482): Addivtive
Antifungal activity as compared with fluconazole (T. tonsurans [20]; all strains tested): more potent antifungal activity as compared with fluconazole
Antifungal activity as compared with fluconazole (T. mentagrophytes [21]; all strains tested): more potent antifungal activity as compared with fluconazole
